From US20160122307A1, “PERHYDROQUINOXALINE DERIVATIVES” (DR. AUGUST WOLFF GMBH & CO. KG ARZNEIMITTEL, priority 2013, published 2016)
Like-named read-outs stand apart in the source and are kept apart here.

Biological target: Human opiate κ receptors (Homo sapiens, UniProt P41145)
Test: κ opioid receptor functional assay, [35S]GTPγS binding (assay C)
Format: biochemical
Details: for activation at 1 µM: 0.5 h, read-out: % activation functional assay at 1 μM

Chain of Human opiate κ receptors (P41145 whole entry): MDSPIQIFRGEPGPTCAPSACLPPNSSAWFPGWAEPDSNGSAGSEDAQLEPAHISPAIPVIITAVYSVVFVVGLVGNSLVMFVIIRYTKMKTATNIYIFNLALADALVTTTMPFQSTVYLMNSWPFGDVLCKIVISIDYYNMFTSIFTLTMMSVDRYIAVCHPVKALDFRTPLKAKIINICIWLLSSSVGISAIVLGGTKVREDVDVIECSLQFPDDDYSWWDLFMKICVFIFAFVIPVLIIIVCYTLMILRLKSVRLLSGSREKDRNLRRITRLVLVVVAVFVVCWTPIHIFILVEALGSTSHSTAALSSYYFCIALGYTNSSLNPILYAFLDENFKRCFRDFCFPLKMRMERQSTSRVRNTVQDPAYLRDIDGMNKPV

Row | Structure (SMILES) | activation at 1 µM [%] | EC50 (GTPγS EC50 (nM)) [nM] | also measured
1 | O=C(c1ncccn1)N1CCN(C(=O)Cc2ccc(Cl)c(Cl)c2)C2C(N3CCCC3)CCCC21 (racemic) [Example 82] | 97 | – | –
2 | O=C(C=Cc1ccoc1)N1CCN(C(=O)Cc2ccc(Cl)c(Cl)c2)C2C(N3CCCC3)CCCC21 (racemic) [Example 79] | 102 | – | –
3 | COC(=O)N1CCN(C(=O)Cc2ccc(Cl)c(Cl)c2)[C@H]2[C@H](N3CCCC3)CCC[C@@H]21 (single isomer, unassigned) [Reference compound C, reference compound] | 85 | – | –
4 | O=C(c1ccco1)N1CCN(C(=O)Cc2ccc(Cl)c(Cl)c2)C2C(N3CCCC3)CCCC21 (racemic) [Example 29] | 96 | – | –
5 | CCC(=O)N1CCN(C(=O)Cc2ccc(Cl)c(Cl)c2)C2C(N3CCCC3)CCCC21 (centres unmarked) [N, reference compound] | – | – | activation (% of control) at 1 μM: 63 % of control; EC50 (read-out: EC50 (nM) [35S]GTPγS binding): 600 nM
6 | COC(=O)N1CCN(C(=O)Cc2ccc(Cl)s2)C2C(N3CCCC3)CCCC21 (racemic) [Example 8] | 97 | 10 to 100 | –
7 | COC(=O)N1CCN(C(=O)Cc2ccc(Cl)c(Cl)c2)[C@H]2[C@H](N3CCCC3)CCC[C@@H]21 (racemic) [Reference compound B, reference compound] | 90 | – | activation (% of control) at 1 μM: 90 % of control
8 | COC(=O)C(=O)N1CCN(C(=O)Cc2ccc(Cl)c(Cl)c2)C2C(N3CCCC3)CCCC21.Cl (centres unmarked) [Example 103] | – | – | % activation functional assay at 1 μM: 98%; EC50 (read-out: GTPγS EC50): < 10 nM
9 | COC(=O)c1ccc(C(=O)N2CCN(C(=O)Cc3ccc(Cl)c(Cl)c3)C3C(N4CCCC4)CCCC32)nc1 (racemic) [Example 85] | 101 | – | –
10 | CC(C)NC(=O)N1CCN(C(=O)Cc2ccc(Cl)c(Cl)c2)C2C(N3CCCC3)CCCC21 (racemic) [Example 42] | 96 | < 10 | –
11 | COC(=O)N1CCN(C(=O)Cc2ccc(Cl)c(Cl)c2)C2C(N3CC(O)C3)CCCC21 (racemic) [Example 71] | – | – | % activation functional assay at 1 μM: 113%; EC50 (read-out: GTPγS EC50): 10 to 100 nM
12 | O=C(C1CCC1)N1CCN(C(=O)Cc2ccc(Cl)c(Cl)c2)C2C(N3CCCC3)CCCC21 (racemic) [Example 27] | 103 | < 10 | –
13 | COC(=O)N1CCN(C(=O)Cc2ccc(C(F)(F)F)cc2)C2C(N3CCCC3)CCCC21 (racemic) [Example 5] | 105 | < 10 | –
14 | O=C(C1CC1)N1CCN(C(=O)Cc2ccc(Cl)c(Cl)c2)C2C(N3CCCC3)CCCC21 (racemic) [Example 28] | 111 | < 10 | –
15 | CCN(C)C1CCCC2C1N(C(=O)Cc1ccc(Cl)c(Cl)c1)CCN2C(=O)OC (racemic) [Example 45] | 91 | < 10 | –
16 | COC(=O)N1CCN(C(=O)Cc2ccc(Cl)c(Cl)c2)[C@@H]2[C@@H](N3CC[C@@H](O)C3)CCC[C@@H]21 [Example 96] | 109 | < 10 | –
17 | O=C(Cc1ccc(Cl)c(Cl)c1)N1CCN(C(=O)OCc2ccccc2)[C@H]2CCC[C@H](N3CCCC3)[C@H]21 (racemic) [Example 16] | 102 | < 10 | –
18 | O=C(c1cccs1)N1CCN(C(=O)Cc2ccc(Cl)c(Cl)c2)C2C(N3CCCC3)CCCC21 (racemic) [Example 30] | 110 | – | –
19 | COC(=O)N1CCN(C(=O)Cc2ccc(Cl)c(F)c2)C2C(N3CCC(O)C3)CCCC21.Cl (centres unmarked) [Example 115] | – | – | % activation functional assay at 1 μM: 103%; EC50 (read-out: GTPγS EC50): 10 to 100 nM
20 | COC(=O)N1CCN(C(=O)Cc2ccc(Cl)c(Cl)c2)[C@H]2[C@H]1CCC[C@@H]2N1CCCC1 (single isomer, unassigned) [Reference compound D, reference compound] | 92 | – | –
21 | CS(=O)(=O)N1CCN(C(=O)Cc2ccc(Cl)c(Cl)c2)[C@@H]2[C@@H](N3CCCC3)CCC[C@@H]21 [Example 102] | 106 | < 10 | –
